# From patent publication US20070172815A1 (priority 2000, published 2007)
# How the values were obtained:
# [1] = molecular target: T1, voltage-gated K+ channel KCNQ2 (Mus musculus, UniProt Q9Z351); experiment: Thallium influx assay (BTC fluorescence) in HEK-293 cells stably transfected with KCNQ2; assay type: cell-based; conditions: 15 μM final; thallium ions (5 mM) and K+ (20 mM); FIG. 3A
# T1 construct: expressed in transfected cells
# Procedure: (§1) Once loaded, apamin (5 μl/well of 500 nM stock dissolved in Cl^−-free assay buffer (Table II) or an equivalent volume of Cl^−-free assay buffer) was added. The microtiter plates were then transferred to the plate reader, FLIPR. After, or coincident with exposure to apamin or Cl^−-free assay buffer alone, the cells were exposed to 5 μl/well of a stimulus buffer containing 5 μM ionomycin (Calbiochem) and 7.5 mM Tl2SO4 dissolved in Cl^−-free assay buffer containing 2 mM amaranth and 1 mM tartrazine.
# HEK-293 cell line stably transfected with the voltage-gated K^+ channel KCNQ2 was used; • 2. The channel opener used was retigabine (Main, M. J., et al., Mol. Pharmacol., 2000, 58, 253-62) at a final concentration of 15 μM; and • 3. The channel blocker DMP-543 (Zaczek, R., et al., J. Pharmacol. Exp. Ther. 1998, 285, 724-30) used was at a final concentration of 15 μM.
# To detect channel blockers the KCNQ2 channels were opened with a combination of thallium ions (5 mM) and K^+ (20 mM). To detect openers the assay was initiated with thallium ions (3 mM).
# To detect channel blockers the assay was started by adding 11 μl of stimulus buffer containing: 12.5 mM Tl2SO4 and 50 mM K2SO4 dissolved in the Cl^−-free assay buffer (Table II) containing 2 mM amaranth and 1 mM tartrazine. […]
# [2] = tested on: native, untransfected HEK cells; experiment: Control: BTC fluorescence in native, untransfected HEK cells under identical conditions; assay type: cell-based, human
# From the text: A person of ordinary skill in the art will understand that control experiments can be performed to facilitate analysis of the effects of the candidate modulator. Control experiments can be performed using: (1) native, untransfected cells under identical conditions of the methods of the invention; (2) the addition of thallium ions to the test mixture in the absence of stimulus solution; (3) cells under identical conditions of the methods of the invention, but without the candidate modulator of the ion channels, channel-linked receptors or ion transporters added to the test mixture; and/or (4) cells under identical conditions to the methods of the invention, but using known modulators of the ion channels, channel-linked receptors or ion transporters.
# as §1
# [3] = molecular target: T2, large conductance calcium-activated K+ channel, Maxi-K (a.k.a. BK, slo) (Homo sapiens, UniProt Q12791); experiment: Thallium influx assay (BTC fluorescence) in HEK-293 cells stably transfected with Maxi-K; assay type: cell-based
# T2 construct: expressed in transfected cells
# Procedure: HEK-293 cells were stably transfected with Maxi-K channels. […] The channel opener used was NS-1619 (Sigma-Aldrich, St Louis, Mo.) at a final concentration of 15 μM. The channel blocker used was Iberiotoxin (Sigma-Aldrich, St. Louis, Mo.) at a final concentration of 100 nM.
# To detect channel blockers, the assay was started by adding 11 μl of stimulus buffer containing: 15 μM ionomycin, 12.5 Tl2SO4 and 50 mM K2SO4 dissolved in the Cl^−-free assay buffer (Table II) containing 2 mM amaranth and 1 mM tartrazine.
# To detect channel openers, the stimulus buffer was identical to the assay conditions of the channel blockers with the exception that 5 μM ionomcyin was used in place of 15 μM ionomycin. Under these conditions the channels were submaximally opened, allowing observation of openers of the channels.
# [4] = molecular target: T3, non-selective cation channel vanilloid receptor (VR1) (Homo sapiens, UniProt Q8NER1); experiment: Thallium influx assay (BTC fluorescence) in CHO cells stably expressing VR1; assay type: cell-based
# T3 construct: expressed in transfected cells
# Procedure: (§2) A HEK-293 cell line (obtained from ATCC, Manassas, Va.) stably expressing the small conductance calcium-activated K^+ channel (SK2) was seeded at ~80% confluence in a 384 well microtiter plate, coated with poly-D-lysine plates, containing 20 μl/well low Cl^− cell growth medium. The cells were allowed to incubate overnight at 37 C in a 5% CO2 incubator.
# (§3) The cell-containing plates were removed from the incubator and loaded for approximately 15 min with 2 μM BTC-AM (Molecular Probes, Eugene, Oreg.) dissolved in 20 μL/well Cl^−-free assay buffer containing amaranth and tartrazine (the final concentration in the assay is 2 mM amaranth and 1 mM tartrazine). The AM ester of BTC (BTC-AM) is membrane permeant. As it diffuses across the membrane, it is cleaved by cellular esterases, producing a charged, membrane impermeant dye, BTC. These types of dyes and loading mechanisms are well known to those familiar with the art.
# The microtiter plates were then transferred to the plate reader, FLIPR.
# (§4) All data shown were collected using the FLIPR (Molecular Devices, Sunnyvale, Calif). […] 10 seconds of baseline prior to addition of the stimulus buffer.
# All experimental conditions for this example were the same as Example II with the following exceptions: • 1. The cell line CHO stably expressing the non-selective cation channel vanilloid receptor (VR1) was used. • 2. The channel antagonist, capsazepine (Sigma-Aldrich, RBI St Louis, Mo.) was applied at a final concentration of 10 μM; and • 3. The assay was started by adding 5 μl of stimulus buffer containing: 1 μM capsaicin and 7.5 mM Tl2SO4 dissolved in a Cl^−-free assay buffer containing 2 mM amaranth and 1 mM tartrazine.
# [5] = molecular target: T4, small conductance calcium-activated K+ channel (SK2) (Homo sapiens, UniProt Q9H2S1); experiment: Thallium efflux assay (FluoZin-1 fluorescence) in SK2 expressing HEK-293 cells; assay type: cell-based; conditions: stimulus buffer with 5 μM ionomycin; cells preloaded with thallium; FIG. 5
# T4 construct: expressed in transfected cells
# Procedure: Instead of loading the cells with 2 μM BTC-AM, the cells were loaded with 2 μM FluoZin-1 (Molecular Probes, Eugene, Oreg.)
# After loading the cells with FluoZin-1, the cells were exposed to 10 μl/well of Cl^−-free assay buffer containing 7.5 mM Tl2SO4 for 10 minutes at room temperature. This step loads the cells with thallium which interacts with the thallium ion sensitive fluorescent dye FluoZin-1 and increases its fluorescence.
# Following loading the cells with thallium ions, the solution bathing the cells was aspirated off, and replaced with 80 μl/well of Cl^−-free assay buffer.
# [6] = molecular target: T4, small conductance calcium-activated K+ channel (SK2); experiment: Thallium influx assay (BTC fluorescence, FLIPR) in HEK-293 cells stably expressing SK2; assay type: cell-based; conditions: stimulus buffer with 5 μM ionomycin and 7.5 mM Tl2SO4; FIG. 1
# Procedure: as §1
# [7] = molecular target: Muscarinic acetylcholine receptor (Homo sapiens, UniProt P20309)
# Procedure: as §2, §3, §4
# [8] = Example III (Maxi-K) conditions
# T3 sequence (Q8NER1 whole entry): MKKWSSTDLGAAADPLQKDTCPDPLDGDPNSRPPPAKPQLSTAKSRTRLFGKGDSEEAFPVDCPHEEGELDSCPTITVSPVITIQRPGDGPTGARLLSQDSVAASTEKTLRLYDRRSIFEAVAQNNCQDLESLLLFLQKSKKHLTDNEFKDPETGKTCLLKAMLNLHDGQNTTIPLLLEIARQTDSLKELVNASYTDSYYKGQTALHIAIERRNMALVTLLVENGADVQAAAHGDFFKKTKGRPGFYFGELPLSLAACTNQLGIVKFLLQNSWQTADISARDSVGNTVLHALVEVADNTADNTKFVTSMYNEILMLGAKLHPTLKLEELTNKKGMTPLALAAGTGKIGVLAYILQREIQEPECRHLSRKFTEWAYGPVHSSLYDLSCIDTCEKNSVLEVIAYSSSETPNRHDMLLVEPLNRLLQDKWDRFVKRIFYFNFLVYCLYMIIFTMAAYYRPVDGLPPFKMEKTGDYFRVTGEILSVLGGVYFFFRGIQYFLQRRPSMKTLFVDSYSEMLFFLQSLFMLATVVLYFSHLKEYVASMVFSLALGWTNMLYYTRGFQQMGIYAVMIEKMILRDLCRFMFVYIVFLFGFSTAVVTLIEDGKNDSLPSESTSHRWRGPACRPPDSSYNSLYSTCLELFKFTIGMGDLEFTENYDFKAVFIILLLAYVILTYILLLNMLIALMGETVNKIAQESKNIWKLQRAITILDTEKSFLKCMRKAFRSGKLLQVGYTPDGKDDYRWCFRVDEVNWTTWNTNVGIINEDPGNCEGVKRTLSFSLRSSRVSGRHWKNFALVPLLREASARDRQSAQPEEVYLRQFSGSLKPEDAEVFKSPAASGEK
# T2 sequence (Q12791 whole entry): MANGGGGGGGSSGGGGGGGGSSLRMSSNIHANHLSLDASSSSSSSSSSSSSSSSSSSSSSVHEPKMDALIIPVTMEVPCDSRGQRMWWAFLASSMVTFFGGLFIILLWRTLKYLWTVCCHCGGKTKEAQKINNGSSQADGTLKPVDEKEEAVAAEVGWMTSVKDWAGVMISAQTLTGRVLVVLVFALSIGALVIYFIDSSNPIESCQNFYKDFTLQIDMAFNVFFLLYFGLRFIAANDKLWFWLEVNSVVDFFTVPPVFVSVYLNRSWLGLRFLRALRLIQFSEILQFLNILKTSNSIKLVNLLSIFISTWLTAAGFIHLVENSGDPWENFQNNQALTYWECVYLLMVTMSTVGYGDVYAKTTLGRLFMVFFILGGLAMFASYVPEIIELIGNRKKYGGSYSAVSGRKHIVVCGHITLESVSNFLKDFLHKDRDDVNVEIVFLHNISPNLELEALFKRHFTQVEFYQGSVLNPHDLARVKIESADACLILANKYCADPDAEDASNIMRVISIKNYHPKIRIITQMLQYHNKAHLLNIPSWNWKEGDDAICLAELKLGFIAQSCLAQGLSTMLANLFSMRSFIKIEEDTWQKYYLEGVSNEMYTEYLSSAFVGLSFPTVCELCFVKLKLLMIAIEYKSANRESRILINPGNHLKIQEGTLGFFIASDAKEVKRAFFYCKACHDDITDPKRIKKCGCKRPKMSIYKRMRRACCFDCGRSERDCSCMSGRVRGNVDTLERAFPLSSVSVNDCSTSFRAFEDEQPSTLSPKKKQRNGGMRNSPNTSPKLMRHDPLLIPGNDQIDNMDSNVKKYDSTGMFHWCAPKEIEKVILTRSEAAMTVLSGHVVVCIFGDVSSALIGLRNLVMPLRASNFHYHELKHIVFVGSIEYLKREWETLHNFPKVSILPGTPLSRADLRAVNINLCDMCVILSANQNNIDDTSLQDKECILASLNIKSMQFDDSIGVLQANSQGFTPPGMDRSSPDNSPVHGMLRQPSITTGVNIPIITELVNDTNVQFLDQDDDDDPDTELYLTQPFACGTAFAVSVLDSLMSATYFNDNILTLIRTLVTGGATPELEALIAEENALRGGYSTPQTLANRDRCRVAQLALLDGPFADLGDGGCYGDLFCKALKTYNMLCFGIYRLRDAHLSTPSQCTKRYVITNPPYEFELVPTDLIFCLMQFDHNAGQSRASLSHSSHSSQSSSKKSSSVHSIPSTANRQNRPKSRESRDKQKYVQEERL
# T4 sequence (Q9H2S1 whole entry): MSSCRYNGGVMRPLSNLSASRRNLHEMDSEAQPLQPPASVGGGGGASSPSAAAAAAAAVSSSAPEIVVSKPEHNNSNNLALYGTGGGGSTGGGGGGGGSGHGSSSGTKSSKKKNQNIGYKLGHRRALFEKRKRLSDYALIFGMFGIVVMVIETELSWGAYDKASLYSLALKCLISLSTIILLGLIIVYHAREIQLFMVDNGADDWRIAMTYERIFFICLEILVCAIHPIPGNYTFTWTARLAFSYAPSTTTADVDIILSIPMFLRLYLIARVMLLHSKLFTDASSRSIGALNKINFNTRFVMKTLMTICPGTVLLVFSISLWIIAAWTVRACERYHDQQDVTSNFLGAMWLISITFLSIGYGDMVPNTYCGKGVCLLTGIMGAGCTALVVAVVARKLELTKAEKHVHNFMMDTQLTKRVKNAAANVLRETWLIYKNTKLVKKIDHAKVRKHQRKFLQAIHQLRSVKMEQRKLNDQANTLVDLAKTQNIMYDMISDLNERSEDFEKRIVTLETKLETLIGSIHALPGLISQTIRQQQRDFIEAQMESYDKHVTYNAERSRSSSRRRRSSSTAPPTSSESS
# T1 sequence (Q9Z351 whole entry): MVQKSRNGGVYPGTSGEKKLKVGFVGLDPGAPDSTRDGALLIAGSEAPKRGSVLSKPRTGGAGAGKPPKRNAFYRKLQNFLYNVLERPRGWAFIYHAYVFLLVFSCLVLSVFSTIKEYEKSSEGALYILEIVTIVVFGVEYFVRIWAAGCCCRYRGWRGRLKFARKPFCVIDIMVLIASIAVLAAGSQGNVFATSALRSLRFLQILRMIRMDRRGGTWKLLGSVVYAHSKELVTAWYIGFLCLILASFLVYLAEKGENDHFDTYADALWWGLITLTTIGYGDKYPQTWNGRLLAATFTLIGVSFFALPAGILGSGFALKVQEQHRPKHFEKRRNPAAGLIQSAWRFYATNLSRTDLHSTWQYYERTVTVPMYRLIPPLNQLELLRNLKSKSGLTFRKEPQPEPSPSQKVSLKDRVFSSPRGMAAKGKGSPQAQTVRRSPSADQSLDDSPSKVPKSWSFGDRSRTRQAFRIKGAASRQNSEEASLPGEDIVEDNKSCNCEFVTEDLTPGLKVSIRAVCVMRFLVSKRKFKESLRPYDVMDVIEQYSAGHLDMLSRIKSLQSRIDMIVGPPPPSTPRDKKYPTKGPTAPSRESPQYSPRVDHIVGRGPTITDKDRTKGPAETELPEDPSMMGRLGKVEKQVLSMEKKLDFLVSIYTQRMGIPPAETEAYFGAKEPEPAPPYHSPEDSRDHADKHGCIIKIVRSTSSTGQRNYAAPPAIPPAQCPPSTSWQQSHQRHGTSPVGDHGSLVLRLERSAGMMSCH
# Muscarinic acetylcholine receptor, sequence (P20309 whole entry): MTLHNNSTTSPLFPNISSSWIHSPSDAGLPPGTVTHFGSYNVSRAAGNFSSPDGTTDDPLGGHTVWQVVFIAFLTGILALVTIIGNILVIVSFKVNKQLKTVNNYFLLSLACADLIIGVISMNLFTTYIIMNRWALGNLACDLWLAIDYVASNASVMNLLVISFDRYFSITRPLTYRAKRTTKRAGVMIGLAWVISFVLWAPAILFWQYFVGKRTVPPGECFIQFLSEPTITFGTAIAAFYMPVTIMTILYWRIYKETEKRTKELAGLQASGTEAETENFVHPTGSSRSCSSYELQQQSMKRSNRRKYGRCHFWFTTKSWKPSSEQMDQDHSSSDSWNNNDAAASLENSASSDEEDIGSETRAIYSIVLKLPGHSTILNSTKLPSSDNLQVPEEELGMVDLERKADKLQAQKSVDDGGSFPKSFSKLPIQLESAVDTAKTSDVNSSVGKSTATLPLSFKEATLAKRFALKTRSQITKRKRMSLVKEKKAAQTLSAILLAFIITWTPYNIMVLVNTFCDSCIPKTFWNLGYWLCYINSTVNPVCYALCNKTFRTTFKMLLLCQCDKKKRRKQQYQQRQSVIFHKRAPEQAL
compound,measurement,setting,value
O=C1c2ccccc2C(Cc2ccnc(F)c2)(Cc2ccnc(F)c2)c2ccccc21 [DMP-543],Effect of blocker on the thallium/potassium-induced increase in BTC fluorescence,[1],completely abolished
same,"Effect on the fluorescence of BTC loaded into native, untransfected HEK cells",[2]; Example IV (KCNQ2) conditions,Neither DMP-543 nor retigabine had any effects
O=c1[nH]c2cc(C(F)(F)F)ccc2n1-c1cc(C(F)(F)F)ccc1O [NS-1619],"Effect on the fluorescence of BTC loaded into native, untransfected HEK cells",[2]; [8],Neither iberiotoxin nor NS-1619 had any effects
same,Effect of opener on the thallium-induced increase in BTC fluorescence compared to absence of opener,[3],marked increase
COc1cc(CNC(=O)CCCC/C=C/C(C)C)ccc1O [capsaicin],Effect of compound alone on BTC fluorescence in VR1 expressing CHO cells,[4],"small decrease, but no increase"
same,Change in BTC fluorescence upon addition of thallium and agonist,"[4]; stimulus buffer with 1 μM capsaicin and 7.5 mM Tl2SO4, FIG. 4",substantial increase
Oc1cc2c(cc1O)CN(C(=S)NCCc1ccc(Cl)cc1)CCC2 [capsazepine],Effect of antagonist on the thallium/capsaicin-induced increase in BTC fluorescence,"[4]; 10 μM final, FIG. 4",completely abolished
same,Effect of compound alone on BTC fluorescence in VR1 expressing CHO cells,[4],no effect
C[C@H](CCC(=O)O)C[C@H](C)C[C@H](C)C(=O)/C=C(\O)[C@H](C)C[C@H](C)C/C=C/[C@@H](C)[C@@H](O)[C@@H](C)[C@@H](O)C[C@@H]1CC[C@@](C)([C@H]2CC[C@@](C)([C@@H](C)O)O2)O1 [ionomycin],Change in FluoZin-1 fluorescence upon addition of ionomycin (thallium efflux via activated SK channel),[5],decrease in fluorescence
same,Change in BTC fluorescence upon addition of thallium ions plus ionomycin (activation of SK2),[6],substantial increase
"C[N+](C)(C)CC#CCN1CCCC1=O [oxo-M, oxotremorine-M]",Change in BTC fluorescence upon addition of muscarinic receptor agonist,[7],increase in BTC fluorescence
"Iberiotoxin (QFTDVDCSVSKECWSVCKDLFGVDRGKCMGKKCRCYQ; UniProt P24663 1-37, looked up)","Effect on the fluorescence of BTC loaded into native, untransfected HEK cells",[2]; [8],Neither iberiotoxin nor NS-1619 had any effects
same,Effect of blocker on the thallium/ionomycin/potassium-induced increase in BTC fluorescence,"[3]; 100 nM final, stimulus buffer with 15 μM ionomycin, FIG. 2A",completely abolished
